Data taken from US20240270741A1 (Cogent Biosciences, Inc., priority 2023, published 2024).

These compounds were tested against FGFR2 (Homo sapiens, UniProt P21802) (assay: FGFR wild type enzyme assay (HTRF KinEASE-TK), FGFR2). Conditions: Enz FGFR2 (nM), FGFR2 wild type enzyme.
Sequence of FGFR2 (P21802 399-821 limits assumed): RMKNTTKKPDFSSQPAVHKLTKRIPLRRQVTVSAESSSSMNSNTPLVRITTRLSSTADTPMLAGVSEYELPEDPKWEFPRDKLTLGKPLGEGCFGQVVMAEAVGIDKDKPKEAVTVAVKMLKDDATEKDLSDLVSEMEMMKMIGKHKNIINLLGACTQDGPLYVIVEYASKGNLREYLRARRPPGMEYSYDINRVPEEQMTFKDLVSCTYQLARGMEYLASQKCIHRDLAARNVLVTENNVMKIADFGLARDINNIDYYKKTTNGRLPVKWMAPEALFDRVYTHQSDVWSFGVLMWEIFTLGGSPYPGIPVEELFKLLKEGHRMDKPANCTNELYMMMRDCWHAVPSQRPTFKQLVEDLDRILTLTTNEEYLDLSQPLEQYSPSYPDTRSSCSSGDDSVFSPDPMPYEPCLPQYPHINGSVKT
With CC(=O)N1CC[C@]2(CC[C@@H](n3ncc(-c4cc(Sc5ncccc5F)c5c(C#N)cnn5c4)c3C)CC2)C1 [Example 225, 6-(1-((5r,8r)-2-acetyl-2-azaspiro[4.5]decan-8-yl)-5-methyl-1H-pyrazol-4-y)-4-((3-fluoropyridin-2-yl)thio)pyrazolo[1,5-a]pyridine-3-carbonitrile] the IC50 was 1 nM. In the case of Cc1c(-c2cc(Sc3ncccc3F)c3c(C#N)cnn3c2)cnn1[C@@H]1C[C@H]2CNC[C@H]2C1 [Example 226, 4-((3-fluoropyridin-2-yl)thio)-6-(5-methyl-1-((3sR,5s,6aS)-octahydrocyclopenta[c]pyr-rol-5-yl)-1H-pyrazol-4-yl)pyrazolo[1,5-a]pyridine-3-carbonitrile], the IC50 is reported as 1 nM. Compound CC(=O)N1CC[C@]2(CC[C@H](n3ncc(-c4cc(Sc5ncccc5F)c5c(C#N)cnn5c4)c3C)CC2)C1 [Example 227, 6-(1-((5s,8s)-2-acetyl-2-azaspiro[4.5]decan-8-yl)-5-methyl-1H-pyrazol-4-yl)-4-((3-fluoropyridin-2-yl)thio)pyrazolo[1,5-a]pyridine-3-carbonitrile] has an IC50 of 1 nM. Cc1c(-c2cc(Sc3ncccc3F)c3c(C#N)cnn3c2)cnn1[C@H]1CC[C@@H](NC(=O)CO)CC1 [Example 228, N-((1s,4s)-4-(4-(3-cyano-4-((3-fluoropyridin-2-yl)thio)pyrazolo[1,5-a]pyridin-6-yl)-5-methyl-1H-pyrazol-1-yl)cyclohexyl)-2-hydroxyacetamide] gave an IC50 of 1 nM. In the case of Cc1c(-c2cc(Sc3ncc(F)cc3F)c3c(C#N)cnn3c2)cnn1[C@H]1CCCN(C(=O)CO)C1 [Example 229, (S)-4-((3,5-difluoropyridin-2-yl)thio)-6-(1-(1-(2-hydroxyacetyl)piperidin-3-yl)-5-methyl-1H-pyrazol-4-yl)pyrazolo[1,5-a]pyridine-3-carbonitrile], the IC50 is reported as 3 nM. In the case of Cc1c(-c2cc(Sc3ccc(F)cc3C#N)c3c(C#N)cnn3c2)cnn1C1CCN(C)CC1 [Example 230, 4-((2-cyano-4-fluorophenyl)thio)-6-(5-methyl-1-(1-methylpiperidin-4-yl)-1H-pyrazol-4-yl)pyrazolo[1,5-a]pyridine-3-carbonitrile], the IC50 is reported as 1 nM. With CC(=O)N(C)[C@H]1CC[C@@H](n2ncc(-c3cc(Sc4ccccc4C#N)c4c(C#N)cnn4c3)c2C)CC1 [Example 231, N-((1s,4s)-4-(4-(3-cyano-4-((2-cyanophenyl)thio)pyrazolo [1,5-a]pyridin-6-yl)-5-methyl-1H-pyrazol-1-yl)cyclohexyl)-N-methylacetamide] the IC50 was 1 nM. Compound Cc1c(-c2cc(Sc3ccccc3C#N)c3c(C#N)cnn3c2)cnn1C[C@@H]1CNCCO1 [Example 232, (S)-4-((2-cyanophenyl)thio)-6-(5-methyl-1-(morpholin-2-ylmethyl)-1H-pyrazol-4-yl)pyrazolo[1,5-a]pyridine-3-carbonitrile] has an IC50 of 3.5 nM. Cc1c(-c2cc(Sc3ncccc3F)c3c(C#N)cnn3c2)cnn1C[C@@H]1CNCCO1 [Example 233, (S)-4-((3-fluoropyridin-2-yl)thio)-6-(5-methyl-1-(morpholin-2-ylmethyl)-1H-pyrazol-4-yl)pyrazolo[1,5-a]pyridine-3-carbonitrile] showed an IC50 of 6 nM. Compound CC(=O)N1CCO[C@H](Cn2ncc(-c3cc(Sc4ncccc4F)c4c(C#N)cnn4c3)c2C)C1 [Example 234, (S)-6-(1-((4-acetylmorpholin-2-yl)methyl)-5-methyl-1H-pyrazol-4-yl)-4-((3-fluoropyridin-2-yl)thio)pyrazolo[1,5-a]pyridine-3-carbonitrile] has an IC50 of 5 nM. Work on Cc1c(-c2cc(Sc3ncccc3F)c3c(C#N)cnn3c2)cnn1C[C@H]1[C@@H]2CCC[C@@H]21 [Example 235, 6-(1-(((1R,5S,6r)-bicyclo[3.1.0]hexan-6-yl)methyl)-5-methyl-1H-pyrazol-4-yl)-4-((3-fluoropyridin-2-yl)thio)pyrazolo[1,5-a]pyridine-3-carbonitrile] yielded an IC50 of 4 nM. Work on Cc1c(-c2cc(Sc3ncccc3F)c3c(C#N)cnn3c2)cnn1C[C@@H]1[C@@H]2CNC[C@@H]21 [Example 236, 6-(1-(((1R,5S,6s)-3-azabicyclo[3.1.0]hexan-6-yl)methyl)-5-methyl-1H-pyrazol-4-yl)-4-((3-fluoropyridin-2-yl)thio)pyrazolo[1,5-a]pyridine-3-carbonitrile] yielded an IC50 of 1 nM. For CC(=O)N1C[C@@H]2[C@H](C1)[C@H]2Cn1ncc(-c2cc(Sc3ncccc3F)c3c(C#N)cnn3c2)c1C [Example 237, 6-(1-(((1R,5S,6r)-3-acetyl-3-azabicyclo[3.1.0]hexan-6-yl)methyl)-5-methyl-1H-pyrazol-4-yl)-4-((3-fluoropyridin-2-yl)thio)pyrazolo[1,5-a]pyridine-3-carbonitrile], the IC50 was 3 nM. Compound CC(=O)N1C[C@@H]2[C@H](C1)[C@@H]2Cn1ncc(-c2cc(Sc3ncccc3F)c3c(C#N)cnn3c2)c1C [Example 238, 6-(1-(((1R,5S,6s)-3-acetyl-3-azabicyclo[3.1.0]hexan-6-yl)methyl)-5-methyl-1H-pyrazol-4-yl)-4-((3-fluoropyridin-2-yl)thio)pyrazolo[1,5-a]pyridine-3-carbonitrile] has an IC50 of 3 nM. Cc1c(-c2cc(Sc3ncccc3F)c3c(C#N)cnn3c2)cnn1C[C@H]1CC[C@H](O)CC1 [Example 239, 4-((3-fluoropyridin-2-yl)thio)-6-(1-(((1r,4r)-4-hydroxycyclohexyl)methyl)-5-methyl-1H-pyrazol-4-yl)pyrazolo[1,5-a]pyridine-3-carbonitrile] showed an IC50 of 3 nM. Cc1c(-c2cc(Sc3ncccc3F)c3c(C#N)cnn3c2)cnn1C1CCN(Cc2ccccn2)CC1 [Example 240, 4-((3-fluoropyridin-2-yl)thio)-6-(5-methyl-1-(1-(pyridin-2-ylmethyl)piperidin-4-yl)-1H-pyrazol-4-yl)pyrazolo[1,5-a]pyridine-3-carbonitrile] showed an IC50 of 2 nM. With Cc1c(-c2cc(Sc3ncccc3F)c3c(C#N)cnn3c2)cnn1[C@H]1CC[C@@H](N(C)CCO)CC1 [Example 241, 4-((3-fluoropyridin-2-yl)thio)-6-(1-((1s,4s)-4-((2-hydroxyethyl)(methyl)ami-no)cyclohexyl)-5-methyl-1H-pyrazol-4-yl)pyrazolo[1,5-a]pyridine-3-carbonitrile] the IC50 was 1 nM. CCN[C@H]1CC[C@@H](n2ncc(-c3cc(Sc4ncccc4F)c4c(C#N)cnn4c3)c2C)CC1 [Example 242, 6-(1-((1s,4s)-4-(ethylamino)cyclohexyl)-5-methyl-1H-pyrazol-4-yl)-4-((3-fluoropyridin-2-yl)thio)pyrazolo[1,5-a]pyridine-3-carbonitrile] showed an IC50 of 1 nM. For Cc1c(-c2cc(Sc3ncccc3F)c3c(C#N)cnn3c2)cnn1[C@H]1CC[C@@H](NC(C)C)CC1 [Example 243, 4-((3-fluoropyridin-2-yl)thio)-6-(1-((1s,4s)-4-(isopropylamino)cyclohex-yl)-5-methyl-1H-pyrazol-4-yl)pyrazolo[1,5-a]pyridine-3-carbonitrile], the IC50 was 1 nM. With Cc1c(-c2cc(Sc3ncccc3F)c3c(C#N)cnn3c2)cnn1[C@H]1CC[C@@H](NCC(F)(F)F)CC1 [Example 244, 4-((3-fluoropyridin-2-yl)thio)-6-(5-methyl-1-((1s,4s)-4-((2,2,2-trifluoroethyl)amino)cyclo-hexyl)-1H-pyrazol-4-yl)pyrazolo[1,5-a]pyridine-3-carbonitrile] the IC50 was 2.5 nM. For CC(=O)N1C[C@H]2C[C@H](n3ncc(-c4cc(Sc5ncccc5F)c5c(C#N)cnn5c4)c3C)C[C@H]2C1 [Example 245, 6-(1-((3aR,5s,6aS)-2-acetyloctahydrocylcopenta [c]pyrrol-5-yl)-5-methyl-1H-pyrazol-4-yl)-4-((3-fluoropyridin-2-yl)thio)pyrazolo[1,5-a]pyridine-3-carbonitrile], the IC50 was 2.5 nM. Cc1c(-c2cc(Sc3ncccc3F)c3c(C#N)cnn3c2)cnn1[C@H]1C[C@H](CO)C1 [Example 246, 4-((3-fluoropyridin-2-yl)thio)-6-(1-((1r,3r)-3-(hydroxymethyl)cyclobutyl)-5-methyl-1H-pyrazol-4-yl)pyrazolo[1,5-a]pyridine-3-carbonitrile] gave an IC50 of 4 nM. CN(C)[C@H]1CC[C@@H](n2cc(-c3cc(Sc4ncccc4F)c4c(C#N)cnn4c3)cn2)CC1 [Example 247, 6-(1-((1s,4s)-4-(dimethylamino)cyclohex-yl)-1H-pyrazol-4-yl)-4-((3-fluoropyridin-2-yl)thio)pyrazolo[1,5-a]pyridine-3-carbonitrile] was tested, and the IC50 was 1 nM. For CC(=O)N(C)[C@H]1CC[C@@H](n2ncc(-c3cc(Sc4ncccc4F)c4c(C#N)cnn4c3)c2C)CC1 [Example 248, N-((1s,4s)-4-(4-(3-cyano-4-((3-fluoropyridin-2-yl)thio)pyrazolo[1,5-a]pyridin-6-yl)-5-methyl-1H-pyrazol-1-yl)cyclohexyl)-N-methylacetamide], the IC50 was 2 nM. Compound Cc1c(-c2cc(Sc3ncccc3F)c3c(C#N)cnn3c2)cnn1[C@H]1CC[C@@H](N(C)S(C)(=O)=O)CC1 [Example 249, N-((1s,4s)-4-(4-(3-cyano-4-((3-fluoropyridin-2-yl)thio)pyrazolo[1,5-a]pyridin-6-yl)-5-methyl-1H-pyrazol-1-yl)cyclohexyl)-N-methylmethanesulfonamide] has an IC50 of 3 nM. With CCN[C@H]1CC[C@@H](n2ncc(-c3cc(Sc4ccccc4C#N)c4c(C#N)cnn4c3)c2C)CC1 [Example 250, 4-((2-cyanophenyl)thio)-6-(1-((1s,4s)-4-(ethylamino)cylcohexyl)-5-methyl-1H-pyrazol-4-yl)pyrazolo[1,5-a]pyridine-3-carbonitrile] the IC50 was 0.4 nM. With Cc1c(-c2cc(Sc3ccccc3C#N)c3c(C#N)cnn3c2)cnn1[C@H]1CC[C@@H](NC(C)C)CC1 [Example 251] the IC50 was 0.5 nM. For Cc1c(-c2cc(Sc3ncccc3F)c3c(C#N)cnn3c2)cnn1C1CCNC(C)C1 (centres unmarked) [Example 252, 4-((3-fluoropyridin-2-yl)thio)-6-(5-methyl-1-(2-methylpiperidin-4-yl)-1H-pyrazol-4-yl)pyrazolo[1,5-a]pyridine-3-carbonitrile], the IC50 was 1 nM. Work on Cc1c(-c2cc(Sc3ncccc3F)c3c(C#N)cnn3c2)cnn1[C@H]1CC[C@@H](NCC2(C)CC2)CC1 [Example 253, 4-((3-fluoropyridin-2-yl)thio)-6-(5-methyl-1-((1s,4s)-4-(((1-methylcyclopropyl)methyl)amino)cyclohexyl)-1H-pyrazol-4-yl)pyrazolo[1,5-a]pyridine-3-carbonitrile] yielded an IC50 of 0.6 nM.
